The NIST ThermoML archive (doi:10.1021/je050358g)

Details: Liquid, vibrating tube

CC(=O)[O-].CCCCCCCCCCCCCC[P+](CCCCCC)(CCCCCC)CCCCCC [trihexyl(tetradecyl)phosphonium acetate]
mass density [kg/m3]
Details	298.15 K	303.15 K	307.97 K	313.07 K	317.74 K	323.96 K	329.14 K	334.11 K
210 kPa	890.6	887.54	884.7	881.57	878.87	875.25	872.15	869.21
540 kPa	890.77	887.71	884.86	881.77	879.06	875.43	872.35	869.41
1000 kPa	891.01	887.96	885.13	882.02	879.32	875.7	872.61	869.67
3000 kPa	892.04	889.03	886.22	883.14	880.46	876.87	873.78	870.81
5010 kPa	893.09	890.08	887.29	884.26	881.6	878	874.92	871.98
7500 kPa	894.35	891.38	888.6	885.61	882.99	879.4	876.33	873.42
9990 kPa	895.56	892.64	889.9	886.96	884.32	880.77	877.71	874.78
15010 kPa	897.96	895.15	892.45	889.57	886.95	883.42	880.41	877.5
19990 kPa	900.29	897.52	894.88	892.06	889.47	885.99	883	880.11
25010 kPa	902.57	899.86	897.23	894.49	891.91	888.48	885.53	882.67
29990 kPa	904.74	902.08	899.51	896.77	894.26	890.86	887.95	885.12
35010 kPa	906.9	904.28	901.72	899.05	896.54	893.19	890.32	887.57
40020 kPa	908.99	906.41	903.88	901.21	898.76	895.47	892.64	889.93
45010 kPa	911.02	908.45	905.95	903.32	900.88	897.65	894.88	892.22
49990 kPa	912.98	910.44	907.95	905.38	902.96	899.78	897.06	894.45
55000 kPa	914.91	912.4	909.92	907.36	904.98	901.85	899.19	896.66
59990 kPa	916.81	914.31	911.84	909.27	906.93	903.86	901.27	898.81
65010 kPa	918.66	916.16	913.69	911.16	908.84	905.84	903.3	900.91

CCCCCCCCCCCCCC[P+](CCCCCC)(CCCCCC)CCCCCC.[Cl-] [trihexyl(tetradecyl)phosphonium chloride]
mass density [kg/m3]
Details	298.13 K	303.15 K	308.13 K	313.15 K	318.15 K	323.14 K	328.16 K	333.14 K
190 kPa	891.62	888.51	885.65	882.72	879.82	876.69	873.88	870.88
1000 kPa	892.02	888.97	886.07	883.19	880.27	877.16	874.33	871.36
3000 kPa	893.07	890.03	887.18	884.3	881.41	878.29	875.5	872.51
5010 kPa	894.09	891.06	888.26	885.4	882.52	879.43	876.64	873.64
7500 kPa	895.36	892.35	889.57	886.75	883.89	880.82	878.05	875.05
10000 kPa	896.59	893.6	890.87	888.06	885.24	882.18	879.42	876.42
15010 kPa	899.02	896.1	893.38	890.63	887.86	884.84	882.11	879.11
19990 kPa	901.33	898.48	895.82	893.11	890.37	887.38	884.69	881.72
25010 kPa	903.6	900.78	898.17	895.49	892.81	889.86	887.2	884.25
29990 kPa	905.77	903.01	900.42	897.81	895.15	892.24	889.62	886.71
35010 kPa	907.93	905.17	902.63	900.04	897.43	894.57	891.98	889.11
39990 kPa	910.01	907.28	904.75	902.21	899.63	896.82	894.24	891.46
45010 kPa	912.05	909.34	906.82	904.32	901.78	899.01	896.49	893.73
50000 kPa	914.03	911.34	908.83	906.35	903.87	901.13	898.62	895.96
55000 kPa	915.93	913.27	910.78	908.34	905.9	903.19	900.74	898.14
59990 kPa	917.83	915.17	912.67	–	907.87	905.21	902.79	900.26
65000 kPa	919.63	916.99	914.51	–	909.78	907.16	904.8	902.35

CCCCCCCCCCCCCC[P+](CCCCCC)(CCCCCC)CCCCCC.O=S(=O)([N-]S(=O)(=O)C(F)(F)F)C(F)(F)F
mass density [kg/m3]
Details	298.15 K	303.25 K	308.15 K	318.27 K	323.33 K	328.39 K	333.43 K
210 kPa	1066.62	1062.61	1058.87	1051.54	1047.84	1044.49	1041.15
540 kPa	1066.84	1062.85	1059.07	1051.79	1048.07	1044.74	1041.43
1000 kPa	1067.13	1063.14	1059.37	1052.1	1048.38	1045.08	1041.76
3000 kPa	1068.44	1064.47	1060.76	1053.49	1049.81	1046.53	1043.19
5010 kPa	1069.7	1065.77	1062.11	1054.88	1051.24	1047.96	1044.61
7500 kPa	1071.3	1067.39	1063.74	1056.54	1052.94	1049.68	1046.4
9990 kPa	1072.85	1068.97	1065.36	1058.2	1054.64	1051.4	1048.13
15010 kPa	1075.88	1072.09	1068.53	1061.47	1057.95	1054.74	1051.51
19990 kPa	1078.82	1075.07	1071.57	1064.6	1061.14	1057.9	1054.8
25010 kPa	1081.69	1078	1074.54	1067.62	1064.22	1061.01	1057.94
29990 kPa	1084.45	1080.84	1077.42	1070.51	1067.21	1064.03	1060.97
35010 kPa	1087.15	1083.56	1080.23	1073.32	1070.14	1066.99	1063.96
40000 kPa	1089.79	1086.26	1082.95	1076.09	1072.99	1069.88	1066.84
45010 kPa	1092.36	1088.87	1085.64	1078.77	1075.75	1072.64	1069.67
50000 kPa	1094.88	1091.44	1088.25	1081.37	1078.47	1075.39	1072.43
55010 kPa	1097.34	1093.95	1090.8	1084	1081.14	1078.08	1075.17
59990 kPa	1099.74	1096.39	1093.3	1086.5	1083.74	1080.67	1077.73
65010 kPa	1102.11	1098.81	1095.75	1088.91	1086.3	1083.24	1080.29
